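Interpolation was linear, between the two tested concentrations surrounding the appropriate level; five concentrations were tested over 48 hours in 96-well plates. GI50: concentration for 50% inhibition of growth.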 Active and inactive are the calls of the source. Cut-off read from the data, not from the text of the source: active = GI50 up to about 1.1 µM and inactive = higher.
Legend:
Experiment in all cases: NCI-60 cell line screen, 48 h
HT-29 = tested on: HT-29
DMS-273 = tested on: DMS-273
SNB-19 = tested on: SNB-19
DLD-1 = tested on: DLD-1
MOLT-4 = tested on: MOLT-4
UO-31 = tested on: UO-31
KM-20L2 = tested on: KM-20L2
M14 = tested on: M14
SK-MEL-2 = tested on: SK-MEL-2
A549 = tested on: A549
RPMI-8226 = tested on: RPMI-8226
HCT-15 = tested on: HCT-15
HOP-92 = tested on: HOP-92
LOX IMVI = tested on: LOX IMVI
CAKI-1 = tested on: CAKI-1
SF-539 = tested on: SF-539
SF-268 = tested on: SF-268
SNB-75 = tested on: SNB-75
K562 = tested on: K562
RXF 393 = tested on: RXF 393
TK-10 = tested on: TK-10
NCI-H226 = tested on: NCI-H226
SK-OV-3 = tested on: SK-OV-3
OVCAR-5 = tested on: OVCAR-5
HOP-62 = tested on: HOP-62
M19-MEL = tested on: M19-MEL
NCI-H522 = tested on: NCI-H522
HL-60 = tested on: HL-60
OVCAR-8 = tested on: OVCAR-8
SF-295 = tested on: SF-295
LXFL 529 = tested on: LXFL 529
HCT-116 = tested on: HCT-116
EKVX = tested on: EKVX
DMS-114 = tested on: DMS-114
Malme-3M = tested on: Malme-3M
SN12C = tested on: SN12C
NCI-H23 = tested on: NCI-H23
HCC 2998 = tested on: HCC 2998
SW-620 = tested on: SW-620
KM12 = tested on: KM12
U-251 = tested on: U-251
SK-MEL-5 = tested on: SK-MEL-5
SR = tested on: SR
SK-MEL-28 = tested on: SK-MEL-28
A498 = tested on: A498
OVCAR-4 = tested on: OVCAR-4
COLO 205 = tested on: COLO 205
XF498 = tested on: XF498
786-0 = tested on: 786-0
UACC-62 = tested on: UACC-62
SNB-78 = tested on: SNB-78
UACC-257 = tested on: UACC-257
CCRF-CEM = tested on: CCRF-CEM
IGROV-1 = tested on: IGROV-1
ACHN = tested on: ACHN
OVCAR-3 = tested on: OVCAR-3
NCI-H460 = tested on: NCI-H460
HOP-18 = tested on: HOP-18

Measured: GI50

C/C(=N\O)C(CN(C)C)C(c1ccccc1)c1c(O)c2ccccc2oc1=O (configuration not stated)
inactive: HT-29 > 100 µM | DMS-273 > 100 µM | SNB-19 > 100 µM | DLD-1 > 100 µM | MOLT-4 > 100 µM | UO-31 > 100 µM | KM-20L2 > 100 µM | M14 > 100 µM | SK-MEL-2 > 100 µM | A549 > 100 µM | RPMI-8226 > 100 µM | HOP-92 34.9 µM | LOX IMVI > 100 µM | CAKI-1 > 100 µM | SF-539 > 100 µM | SF-268 > 100 µM | SNB-75 > 100 µM | K562 > 100 µM | RXF 393 > 100 µM | TK-10 > 100 µM | NCI-H226 > 100 µM | SK-OV-3 > 100 µM | OVCAR-5 > 100 µM | HOP-62 > 100 µM | M19-MEL > 100 µM | NCI-H522 > 100 µM | HL-60 > 100 µM | OVCAR-8 > 100 µM | SF-295 > 100 µM | LXFL 529 > 100 µM | HCT-116 > 100 µM | EKVX > 100 µM | DMS-114 > 100 µM | Malme-3M > 100 µM | SN12C > 100 µM | NCI-H23 > 100 µM | HCC 2998 > 100 µM | SW-620 > 100 µM | KM12 > 100 µM | U-251 > 100 µM | SK-MEL-5 > 100 µM | SR > 100 µM | SK-MEL-28 > 100 µM | A498 > 100 µM | OVCAR-4 > 100 µM | COLO 205 > 100 µM | XF498 > 100 µM | 786-0 > 100 µM | UACC-62 > 100 µM | SNB-78 > 100 µM | UACC-257 > 100 µM | CCRF-CEM > 100 µM | IGROV-1 > 100 µM
> 100 µM: HCT-15

Cn1c(N)[n+](C(=O)OCc2ccccc2)c(=O)c2c1ncn2C(=O)OCc1ccccc1
inactive: HT-29 > 100 µM | DMS-273 > 100 µM | SNB-19 30.8 µM | DLD-1 95.1 µM | MOLT-4 > 100 µM | UO-31 14.4 µM | KM-20L2 > 100 µM | M14 50.9 µM | SK-MEL-2 > 100 µM | A549 73.1 µM | RPMI-8226 > 100 µM | ACHN 24.4 µM | OVCAR-3 > 100 µM | NCI-H460 > 100 µM | LOX IMVI > 100 µM | CAKI-1 53 µM | SF-268 28.1 µM | SNB-75 24 µM | K562 > 100 µM | TK-10 46.7 µM | NCI-H226 18 µM | SK-OV-3 28.9 µM | OVCAR-5 > 100 µM | HOP-62 27 µM | M19-MEL > 100 µM | NCI-H522 30.9 µM | HOP-18 78.9 µM | HL-60 > 100 µM | OVCAR-8 > 100 µM | SF-295 49.5 µM | LXFL 529 > 100 µM | HCT-116 52.2 µM | EKVX 89.5 µM | DMS-114 99.8 µM | Malme-3M > 100 µM | SN12C > 100 µM | NCI-H23 46.2 µM | HCC 2998 > 100 µM | SW-620 > 100 µM | KM12 > 100 µM | U-251 9.82 µM | SK-MEL-5 > 100 µM | SK-MEL-28 > 100 µM | A498 30.8 µM | OVCAR-4 65.2 µM | COLO 205 > 100 µM | 786-0 30.1 µM | UACC-62 > 100 µM | SNB-78 41.5 µM | UACC-257 > 100 µM | CCRF-CEM > 100 µM | IGROV-1 > 100 µM
> 100 µM: HCT-15
